Consider two compounds from patent publication US5994406A, “Geminal cationic surfactants of the type Nα Nω bis (Nα-acyl-arginin) α,ω diamino alkyl dichlorohydrates as antimicrobial agents” (Consejo Superior Investigaciones Cientificas, priority 1995, dated 1999).

The subject of data set [1] is Bacilus subtilis ATCC 6633. Briefly: antimicrobial activity, MIC, organism 4. In kind it is cell-based. The protocol:
(§1) The main properties of the surface activity in aqueous solution at 25° C. which define the practical interest of a surfactant; surface stress to the critical micellar concentration (γ) and critical micellar concentration (CMC) have been determined according to conventional methods. Likewise, the antimicrobial activity has been evaluated based on the inhibiting minimum concentration values (MIC) expressed in μg/mL following the most common methodologies. Table 1 indicates the values of […], CMC and MIC for two dimers of the same homologeous series; C4 (KA)2 (X=8,n=4) and C4 (LA)2 (X=10, n=4). For the purpose of comparisons in this same table the same values are indicated for the monocatenary compounds KAM and LAM respectively.
4. Bacilus subtilis ATCC 6633

In data set [2] the test system is Staphylococcus aereus ATCC 25178. Description: antimicrobial activity, MIC, organism 5. In kind it is cell-based. The method, then: as §1
5. Staphylococcus aereus ATCC 25178

Data set [3] can be described thus: critical micellar concentration (CMC), aqueous solution 25° C. The data set is classed as physicochemical. The method, then:
as §1

The subject of data set [4] is Streptococcus faecalis ATCC 10541. Description: antimicrobial activity, MIC, organism 3. In kind it is cell-based. The protocol:
as §1
3. Streptococcus faecalis ATCC 10541

Data set [5] concerns Micrococcus luteus ATCC 9341. Briefly: antimicrobial activity, MIC, organism 7. In kind it is cell-based. The protocol: as §1
7. Micrococcus luteus ATCC 9341

Data set [6] concerns Alcaligenes faecalis ATTCC 8750. Description: antimicrobial activity, minimum inhibitory concentration (MIC), organism 1. In kind it is cell-based. The protocol:
as §1
1. Alcaligenes faecalis ATTCC 8750

Data set [7] can be described thus: surface activity: surface tension at the critical micellar concentration, aqueous solution 25° C. The data set is classed as physicochemical. The arrangement: unit not given here. The protocol: as §1
In data set [8] the test system is Staphylococcus epidermidis ATCC 1551. Briefly: antimicrobial activity, MIC, organism 6. The data set is classed as cell-based. The method, then: as §1
6. Staphylococcus epidermidis ATCC 1551

Data set [9] relates to Bordeltella bronchiseptica ATCC. Description: antimicrobial activity, MIC, organism 2. The data set is classed as cell-based. The method, then:
as §1
2. Bordeltella bronchiseptica ATCC

As a reminder, the MIC is the smallest concentration in the dilution series that meets the test's criterion for growth inhibition.

≈ marks a conversion by molar mass, not a printed value. Where two headings read alike, the source gives them in different places. Some results are limits rather than exact numbers.

On to `CCCCCCCCCCCC(=O)N[C@@H](CCCN=C(N)N)C(=O)OC` [LAM], for which the MIC in data set [1] is > 128 mg/L; in data set [2], 64 mg/L (≈ 173 µM); in data set [4], 32 mg/L (≈ 86.4 µM); in data set [5], > 128 mg/L; in data set [6] it was 64 mg/L (≈ 173 µM); in data set [8], 64 mg/L (≈ 173 µM). Also, in data set [9], the MIC was > 128 mg/L. In [3], the CMC stood at 0.0037 mM. For the same compound, the “surface stress (γ) at the critical micellar concentration” value in data set [7] worked out at 30.0.
In the case of `CCCCCCCCCC(=O)N[C@@H](CCCNC(=N)N)C(=O)NCCCCNC(=O)[C@H](CCCNC(=N)N)NC(=O)CCCCCCCCC` [C4 (KA)2, Nα, Nω, Bis (Nα -Decanoilarginin) α,ω-Diaminobuthylamide], the minimum inhibitory concentration (MIC) in [1] (read-out: MIC) came out at 8 mg/L (≈ 11.3 µM); in [2] (ATCC25178, read-out: MIC), 8 mg/L (≈ 11.3 µM); in data set [4] (Enterococcus faecalis, ATCC10541, read-out: MIC), 16 mg/L (≈ 22.6 µM); in [5] (ATCC9341, read-out: MIC), 8 mg/L (≈ 11.3 µM); in [6] (ATTCC8750, read-out: MIC), 64 mg/L (≈ 90.3 µM); in data set [8] (ATCC1551, read-out: MIC) it was 8 mg/L (≈ 11.3 µM). The minimum inhibitory concentration (MIC) in data set [9] (read-out: MIC) is 32 mg/L (≈ 45.1 µM). The CMC in data set [3] turned out to be 7.8e-06 mM. The “surface stress (γ) at the critical micellar concentration” value in data set [7] is 25.
